Experiments:
[1] = Plasma pharmacokinetics of TRA, ponatinib and metabolites after a single oral 45-mg [14C]ponatinib dose
Procedure: The subject release criterion was defined as follows: the combined urine and fecal radioactivity excretion for two consecutive days should fall below 1% of the dose administered.
Detailed procedures on sample collection, storage, and shipment are described in Online Resource 1. […] Fecal homogenates were prepared by adding water (four times the feces weight) and homogenizing.
(§1) TRA analysis was carried out at ABC Laboratories. The radioactivity in plasma (duplicate per time point) and urine samples (triplicate per time point) was quantitated by direct counting in a Beckman LS6000SC or LS6500 liquid scintillation counter (PerkinElmer Life and Analytical Sciences, Boston, MA, USA). Whole blood (duplicate per time point) and fecal homogenate (triplicate per time point) samples were oxidized, and the resultant ^14CO2 was trapped in Carbosorb (Calgon Carbon Corporation, Pittsburgh, PA, USA) in combination with Permafluor, followed by liquid scintillation counting to determine the radioactivity. Individual samples were counted for 5 min for whole blood and fecal matrices, and 10 min for plasma and urine matrices. Predose blood, plasma, urine, and feces samples served as respective control samples to determine and subtract the background radioactivity in the analysis.
M14 was quantitated using a different LC/MS/MS method (Online Resource 2). The pharmacokinetic analysis was carried out using WinNonlin® v6.4 (Pharsight Corp., Mountain View, CA, USA).
Aliquots of 30 µl of calibration standards, quality controls, and incurred plasma samples were transferred into a 96-well plate. Then 150 µl of ice-cold acetonitrile containing 50 ng/ml of AP30376 (d6-AP24600, internal standard) were added. The 96-well plate was vortexed for 10 min and then centrifuged at 4750 rpm for 20 min at 4°C. 100 µl aliquots of the supernatants were transferred into another 96-well plate and the samples were analyzed by liquid chromatography tandem mass spectrometry.

[2] = Metabolite profiling of urine (HPLC-radiochromatography); type: in vivo, human; conditions: 0–72 h pool
Procedure: Predose and 0–72-h urine samples (grand pool of all six subjects) were prepared. Urine samples (5 mL) were centrifuged, the supernatant was transferred to a 15-mL polypropylene tube and placed on ice; the residues were extracted with 1 mL of methanol and the methanol extracts were added to the supernatants. The combined extracts were evaporated under nitrogen and reconstituted in 0.2 mL of methanol. A 0.010-mL aliquot of the reconstituted solution was removed for determination of radioactivity, and the remainder was transferred to HPLC vials and stored at −80 °C.
A Finnigan Surveyor HPLC system (Thermo Fisher Scientific Inc., San Jose, CA, USA), consisting of an LC pump plus an autosampler and a UV–Vis plus detector, was used mostly for profiling (except the post-24-h plasma samples, which were analyzed using a Dionex HPLC system). A Phenomenex® Gemini® C18, 5-μm, 3.0 × 100-mm column (Phenomenex Inc., Torrance, CA, USA) was used along with a C-12 guard column (4 × 2 mm). LC conditions were as follows: solvent A was 10 mM ammonium bicarbonate in water (pH 10.0) and solvent B was 100% methanol and the flow rate was 0.8 mL/min. The following gradient was employed (B%): 0–5 min (20%), 32 min (42%), 33 min (60%), 55 min (70%), 56–60 min (95%), and 62–70 min (20%).
Reconstituted solvent extracts (0.050–0.10 mL) of plasma, urine, or feces were injected onto the HPLC column. The post-column eluate was split after UV detection into two streams (0.64 and 0.16 mL/min). The 0.64-mL stream was diverted to a fraction collector (Gilson FX 204; Gilson Medical Electronics, Middleton, WI, USA) to be collected in 96-well plates at 0.16 min/well (ScintiPlates; PerkinElmer Life Sciences, Shelton, CT, USA), and the 0.16-mL stream was directed to the mass spectrometer. The solvent in the 96-well plates was removed at 40 °C using a Genevac evaporator (Genevac, Inc., Stone Ridge, NY, USA).
The radioactivity counts per minute (CPM) in each well was determined using a MicroBeta scintillation counter (PerkinElmer Life and Analytical Sciences). The resulting CPM vs. time data were processed using Excel (Microsoft Corporation, Seattle, WA, USA). The CPM in each well was background-subtracted (using the average CPM values of the blank region of the HPLC run). Radiochromatographic profiles were obtained by plotting the resulting net CPM values against time after injection. Radioactive peaks in the chromatographic profiles were identified, and the radioactivity in each peak was summed and reported as a percentage of TRA in the HPLC run.

[3] = co-administration of ketoconazole (potent CYP3A4 inhibitor) ref 11; cited from earlier work
[4] = Excretion and mass balance in urine and feces; type: in vivo, human; conditions: single oral administration
Excerpt: Six healthy male volunteers, 25–45 years of age, with a mean body weight of 83.3 kg (range 64.5–94.4) and a mean body mass index of 26.9 kg/m^2 (range 20.2–29.9) participated in the study. […] The subject release criterion was defined as follows: the combined urine and fecal radioactivity excretion for two consecutive days should fall below 1% of the dose administered.
Detailed procedures on sample collection, storage, and shipment are described in Online Resource 1. […] Urine and feces collected from each subject were pooled at predose and every 24 h thereafter. Fecal homogenates were prepared by adding water (four times the feces weight) and homogenizing.
as §1
All urine voided was collected and stored in containers at 5±3 °C until the collection interval was completed. Subjects voided in the morning prior to study drug administration.
Multiple collections of urine during each collection interval from each individual subject were pooled. The urine samples from each collection interval were well mixed, accurately weighed, and assessed for its pH. A 100 ml sample from each collection interval from each subject was aliquoted into a separately labeled container to be sent to ABC Laboratories for radioactivity analysis. An approximately 10 ml sample from each collection interval from each subject on day 8 and each day thereafter was used for TRA analysis at Celerion (Lincoln, NE). All urine samples were kept frozen at −80 ± 15 °C.
Stool collections began approximately 24 h prior to drug administration until the end of the postdose sampling period. The 24 h predose samples were used as control samples for the radioactivity analysis and metabolite profiling. Feces were collected daily (24 h collection periods) until subjects were discharged from the clinical research unit.
All fecal samples were collected in polypropylene containers; toilet paper was collected separately. The weight of each sample was recorded. Multiple collections of feces during each collection interval from each individual subject were pooled. The feces samples were thoroughly homogenized with water (4X the weight of the feces). A 100 g sample was aliquoted into a separately labeled container to be sent to ABC Laboratories for radioactivity analysis. An approximately 10 g sample from each collection interval from each subject on day 8 and each day thereafter was used for TRA analysis at Celerion. All fecal homogenate samples were kept frozen at −80 ± 15 °C.

[5] = male, human, in vivo, po, 45 mg

Cc1ccc(C(=O)Nc2ccc(CN3CCN(C)CC3)c(C(F)(F)F)c2)cc1C#Cc1cnc2cccnn12.Cl [Ponatinib, 3-(imidazo[1,2-b]pyridazin-3-ylethynyl)-4-methyl-N-(4-((4-methylpiperazin-1-yl)methyl)-3-(trifluoromethyl)phenyl)benzamide hydrochloride]
plasma level at 144 h postdose ([1]; human plasma, 144 h postdose): at or below detectable limits | AUC(0-t) [1, 5]: 3.48 µM·h | Tmax [1, 5]: 5 h | half-life [1, 5]: 1640 min | concentration at 144 h ([1]; male, human, plasma, oral, 45 mg): < 2.4 nM | % of total radioactive dose [2]: <0.05% | % Distribution in matrix ([2]; % of urinary TRA): Trace levels | increase of AUC0–∞ on co-administration of ketoconazole [3]: 47% | increase of C max on co-administration of ketoconazole [3]: 78% | elimination pathway N-demethylation, share of dose [4]: 8.3% | elimination pathway hydroxylation, share of dose [4]: 18.0% | elimination pathway methylation, share of dose [4]: 8.4% | elimination pathway amide bond hydrolysis, share of dose ([4]; estimated from 81% of urinary TRA and 5.4% of dose in urine): 4.4%

Reference: paper PMC5344956 (Cancer Chemotherapy and Pharmacology, 2017)
